The source made the active and inactive calls. The rule behind the calls is not given here.
Columns and labels:
[1] = target: T1, Delta-type opioid receptor (Homo sapiens, UniProt P41143); assay: Displacement of [3H]DPDPE from human delta opioid receptor expressed in CHO cells; assay type: cell-based
Mu-type opioid receptor = Mu-type opioid receptor (Homo sapiens, UniProt P35372); assay: Displacement of [3H]DAMGO from human mu opioid receptor expressed in CHO cells; assay type: cell-based
[2] = target: Kappa-type opioid receptor (Homo sapiens, UniProt P41145); assay: Displacement of [3H]U69593 from human kappa opioid receptor expressed in CHO cells; assay type: cell-based
Kappa-type opioid receptor, sequence (P41145 whole entry): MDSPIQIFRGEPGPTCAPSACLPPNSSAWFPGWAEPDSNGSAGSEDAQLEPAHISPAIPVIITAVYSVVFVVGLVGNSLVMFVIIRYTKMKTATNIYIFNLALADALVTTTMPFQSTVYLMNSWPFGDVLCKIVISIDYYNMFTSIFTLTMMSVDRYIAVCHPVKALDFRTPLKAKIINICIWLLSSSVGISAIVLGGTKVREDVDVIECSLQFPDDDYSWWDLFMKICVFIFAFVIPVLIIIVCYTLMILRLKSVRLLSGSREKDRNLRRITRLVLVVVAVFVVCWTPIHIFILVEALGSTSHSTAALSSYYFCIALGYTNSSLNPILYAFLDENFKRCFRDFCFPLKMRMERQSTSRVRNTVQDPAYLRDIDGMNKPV

Homo sapiens [3] = species: Homo sapiens; assay: Selectivity ratio for Ki for displacement of [3H]DAMGO from human mu opioid receptor expressed in CHO cells to Ki for displacement of [3H]DPDPE from human DOR expressed in CHO cells; assay type: cell-based
Homo sapiens [4] = species: Homo sapiens; assay: Selectivity ratio for Ki for displacement of [3H]U69593 from human kappa opioid receptor expressed in CHO cells to Ki for displacement of [3H]DPDPE from human DOR expressed in CHO cells; assay type: cell-based
[5] = target: T1, Delta-type opioid receptor; assay: Agonist activity at human delta opioid receptor expressed in CHO cell membranes by [35S]GTPgammaS binding assay; assay type: functional
[6] = target: T1, Delta-type opioid receptor; assay: Agonist activity at human delta opioid receptor expressed in CHO cell membranes by [35S]GTPgammaS binding assay relative to control; assay type: functional
Mus musculus [7] = assay: Antidepressant activity in sc dosed mouse assessed as decrease in total immobility count by forced swim test; assay type: functional, organism-based
Mus musculus [8] = assay: Antidepressant activity in sc dosed mouse assessed as increase in total swimming count by forced swim test; assay type: functional, organism-based
Mus musculus [9] = assay: Antidepressant activity in sc dosed mouse assessed as increase in climbing count by forced swim test; assay type: functional, organism-based
Mus musculus [10] = assay: Antidepressant activity in mouse at 10 mg/kg, sc by forced swim tes; assay type: functional, organism-based
[11] = target: T1, Delta-type opioid receptor; assay: Inverse agonist activity at human delta opioid receptor expressed in CHO cell membranes by [35S]GTPgammaS binding assay; assay type: functional
Mus musculus [12] = assay: Antidepressant activity in mouse at 3 mg/kg, sc by forced swim test; assay type: functional, organism-based

Mu-type opioid receptor, sequence (P35372 whole entry): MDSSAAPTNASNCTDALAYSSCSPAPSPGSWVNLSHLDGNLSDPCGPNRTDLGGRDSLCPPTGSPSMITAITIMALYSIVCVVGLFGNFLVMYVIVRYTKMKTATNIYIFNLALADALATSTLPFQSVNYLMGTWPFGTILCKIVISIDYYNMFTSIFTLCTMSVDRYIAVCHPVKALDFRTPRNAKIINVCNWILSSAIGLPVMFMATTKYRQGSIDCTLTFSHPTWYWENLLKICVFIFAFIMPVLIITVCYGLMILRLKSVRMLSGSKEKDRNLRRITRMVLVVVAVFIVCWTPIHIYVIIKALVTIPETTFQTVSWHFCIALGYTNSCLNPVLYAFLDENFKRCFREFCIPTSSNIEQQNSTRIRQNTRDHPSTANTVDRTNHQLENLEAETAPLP
T1 sequence (P41143 whole entry): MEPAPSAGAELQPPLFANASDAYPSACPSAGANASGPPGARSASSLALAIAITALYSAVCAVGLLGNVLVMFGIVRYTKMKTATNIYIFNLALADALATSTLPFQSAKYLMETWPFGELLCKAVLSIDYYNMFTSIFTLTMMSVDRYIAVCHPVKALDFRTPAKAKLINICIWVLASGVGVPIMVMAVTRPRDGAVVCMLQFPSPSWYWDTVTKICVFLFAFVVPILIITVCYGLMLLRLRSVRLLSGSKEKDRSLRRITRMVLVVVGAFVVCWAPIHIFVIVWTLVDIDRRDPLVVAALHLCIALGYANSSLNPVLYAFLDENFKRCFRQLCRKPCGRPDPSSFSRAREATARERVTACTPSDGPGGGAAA

| Compound | Ki [1] [µM] | Ki (Mu-type opioid receptor) [µM] | Ki [2] [µM] | Ratio Ki (Homo sapiens [3]) | Ratio Ki (Homo sapiens [4]) | EC50 [5] [µM] | Emax [6] [%] | Activity (Mus musculus [7]) | Activity (Mus musculus [8]) | Activity (Mus musculus [9]) | Activity (Mus musculus [10]) | EC50 [11] [µM] | Activity (Mus musculus [12]) |
| --- | --- | --- | --- | --- | --- | --- | --- | --- | --- | --- | --- | --- | --- |
| O=C(Cc1ccccc1)N1CC[C@]23c4c5ccc(O)c4O[C@H]2c2[nH]c4ccccc4c2C[C@@]3(O)[C@H]1C5 | 0.0415 | 8.67 | 5.99 | 209 | 144 | 0.132 | 97.5 | – | – | – | – | – | – |
| CN1CC[C@]23Cc4nc5ccccc5cc4C[C@@]2(O)[C@H]1Cc1ccc(O)cc13 | – | – | – | – | – | – | – | Dose-dependent effect | Dose-dependent effect | Dose-dependent effect | Active | – | – |
| COC1=CC=C2C[C@H]3N(C(=O)C4CC4)CC[C@]45C2C1O[C@H]4c1[nH]c2ccccc2c1C[C@@]35O (stereo partly specified) | – | – | – | – | – | – | – | – | – | – | – | 0.322 | – |
| O=C(Cc1ccccc1)N1CC[C@]23Cc4nc5ccccc5cc4C[C@@]2(O)[C@H]1Cc1ccc(O)cc13 | 0.026 | – | – | – | – | 0.0144 | 125 | Dose-dependent effect | Dose-dependent effect | Dose-dependent effect | – | – | Active |
| O=C(CCc1ccccc1)N1CC[C@]23c4c5ccc(O)c4O[C@H]2c2[nH]c4ccccc4c2C[C@@]3(O)[C@H]1C5 | 0.089 | 3.48 | 2.15 | 39.2 | 24.2 | 0.127 | 88.5 | – | – | – | – | – | – |
| O=C(CCc1ccccc1)N1CC[C@]23Cc4nc5ccccc5cc4C[C@@]2(O)[C@H]1Cc1ccc(O)cc13 | 0.00417 | 1.79 | – | 430 | – | 0.0104 | 123 | – | – | – | – | – | – |
